{"source": "patent US20230338609A1", "about": "“MEDICAL DEVICES AND MATERIALS COMPRISING BIODEGRADABLE POLYESTERS” (AMICOAT AS, priority 2020, published 2023)", "key": {"[1]": {"system": "Propionibacterium acnes- antibiotic-resistant clinical isolate", "details": "P. acnes antibiotic-resistant"}, "[2]": {"system": "Methicillin resistant Staphylococcus aureus (MRSA) strain ATCC 33591", "details": "ATCC 33591"}, "E. coli": {"system": "E. coli", "details": "Table 5"}, "[3]": {"system": "Haemophilus influenzae β- lactamase negative ampicillin-resistant clinical isolate"}, "[4]": {"system": "Salmonella sp - multi-drug resistant clinical isolate", "assay": "MIC microbroth dilution (CLSI)", "type": "cell-based", "text": "(§1) Cation-adjusted Mueller-Hinton broth (Oxoid Ltd., Basingstoke, UK and Trek Diagnostic Systems Ltd., East Grinstead, UK) (supplemented with 5% laked horse blood for Streptococcus spp., Corynebacterium jeikeium and Listeria monocytogenes) was used for aerobic bacteria, with an initial inoculum of approximately 10^5 colony-forming units (CFU)/mL."}, "[5]": {"system": "Shigella sp - antibiotic-susceptible clinical isolate", "assay": "MIC microbroth dilution (CLSI)", "type": "cell-based", "text": "as §1"}, "[6]": {"system": "Salmonella sp - antibiotic-susceptible clinical isolate", "assay": "MIC microbroth dilution (CLSI)", "type": "cell-based", "text": "as §1"}, "C. albicans": {"system": "C. albicans", "details": "Table 5"}, "[7]": {"system": "Staphylococcus aureus FDA486", "assay": "Murine skin infection model, topical treatment", "type": "in vivo", "details": "mice; 2% cream; three treatments at three hourly intervals; biopsy three hours after last", "experimental": "The skin of mice was infected with Staphylococcus aureus or Streptococcus pyogenes and subsequently given a total of three treatments at three hourly intervals. Three hours after the last treatment, skin biopsies were collected and the number of colony forming units (CFUs) present in the skin sample was determined. Results are shown in FIGS. 1 and 2, expressed as the number of colony forming units per mouse.\nThe skin of mice was infected with Staphylococcus aureus or Streptococcus pyogenes and subsequently given a total of three treatments at three hourly intervals. Three hours after the last treatment, skin biopsies were collected and the number of colony forming units (CFUs) present in the skin sample was determined. Results are shown in FIGS. 3, 4 and 5 expressed as the number of colony forming units per mouse."}, "[8]": {"system": "Staphylococcus aureus, strain ATCC 25923", "details": "ATCC 25923"}, "S. pyogenes": {"system": "S. pyogenes", "details": "Table 5"}, "[9]": {"system": "Haemophilus influenzae - β -lactamase positive clinical isolate"}, "[10]": {"system": "Propionibacterium acnes- antibiotic-susceptible clinical isolate", "assay": "MIC microbroth dilution (CLSI)", "type": "cell-based", "details": "P. acnes antibiotic-susceptible", "experimental": "Supplemented Brucella broth (SBB) was used for the anaerobic strains with an inoculum of approximately 10^6 CFU/mL. SBB is a broth consisting of 1% peptone, 0.5% ‘Lab-lemco’, 1% glucose and 0.5% sodium chloride supplemented with 5 […] vitamin K (both obtained from Sigma Aldrich Ltd.)"}, "[11]": {"system": "Corynebacterium jeikeium - multi-drug resistant clinical isolate", "type": "cell-based", "text": "as §1"}, "[12]": {"system": "Enterococcus faecium vancomycin-susceptible clinical isolate", "type": "cell-based", "text": "as §1"}, "[13]": {"system": "Staphylococcus aureus - methicillin-resistant clinical isolate", "type": "cell-based", "text": "as §1"}, "[14]": {"system": "Enterococcus faecalis high-level gentamicin-resistant clinical isolate", "type": "cell-based", "text": "as §1"}, "[15]": {"system": "Enterococcus gallinarum vancomycin-resistant (VanC) clinical isolate", "type": "cell-based", "text": "as §1"}, "[16]": {"system": "Escherichia coli ATCC25922 - antibiotic-susceptible type strain", "type": "cell-based", "text": "as §1"}, "[17]": {"system": "Staphylococcus epidermidis antibiotic susceptible clinical isolate", "type": "cell-based", "text": "as §1"}, "[18]": {"system": "Enterococcus faecium vancomycin-resistant (VanA) clinical isolate", "type": "cell-based", "text": "as §1"}, "[19]": {"system": "Streptococcus pyogenes - Macrolide (M-type) resistance clinical isolate", "type": "cell-based", "details": "- Macrolide (M-type) resistance clinical isolate", "text": "as §1"}, "[20]": {"system": "Streptococcus agalactiae - antibiotic-susceptible clinical isolate", "type": "cell-based", "text": "as §1"}, "[21]": {"system": "Methicillin resistant Staphylococcus epidermidis (MRSE) strain ATCC 27626", "details": "ATCC 27626"}, "P. aeruginosa": {"system": "P. aeruginosa", "details": "Table 5"}, "[22]": {"system": "Trichophyton interdigitale - G.R. Micro collection", "type": "cell-based", "experimental": "(§2) Yeast and filamentous fungal MIC were performed in MOPS buffered RPMI 1640 medium (MOPS buffer obtained from Sigma Aldrich Ltd., RPMI 1640 obtained from Invitrogen Ltd, Paisley, Scotland). The yeast inocula were in the range 7.5×10^2-4×10^3 CFU/mL and the filamentous fungi approximately 8×10^3-1×10^5 CFU/mL"}, "[23]": {"system": "Candida albicans ATCC24433 - reference strain", "type": "cell-based", "experimental": "as §2"}, "[24]": {"system": "Candida parapsilosis ATCC90018 - reference strain", "type": "cell-based", "experimental": "as §2"}, "[25]": {"system": "Candida albicans ATCC90028 - reference strain", "type": "cell-based", "experimental": "as §2"}, "[26]": {"system": "Cryptococcus neoformans - G.R. Micro collection", "type": "cell-based", "experimental": "as §2"}, "[27]": {"system": "Candida tropicalis ATCC750 - reference strain", "type": "cell-based", "experimental": "as §2"}, "[28]": {"system": "Aspergillus niger - G.R. Micro collection", "type": "cell-based", "experimental": "as §2"}, "[29]": {"system": "Trichophyton mentagrophytes - G.R. Micro collection", "type": "cell-based", "experimental": "as §2"}, "[30]": {"system": "Microsporum canis - G.R. Micro collection", "type": "cell-based", "experimental": "as §2"}}, "data": [{"smiles": "CCCCCCNC(=O)[C@H](CCCNC(=N)N)NC(=O)[C@H](Cc1c(C(C)(C)C)[nH]c2c(C(C)(C)C)cc(C(C)(C)C)cc12)NC(=O)[C@@H](N)CCCNC(=N)N", "note": "[Compound 8]", "values": [{"measurement": "MIC", "setting": "[1]", "value": 2, "unit": "mg/L"}, {"measurement": "MRSA (MIC)", "setting": "[2]", "value": 2, "unit": "mg/L"}, {"measurement": "E. coli (MIC)", "setting": "E. coli", "value": 5, "unit": "mg/L"}, {"measurement": "MIC", "setting": "[3]", "value": 8, "unit": "mg/L"}, {"measurement": "MIC", "setting": "[4]", "value": 8, "unit": "mg/L"}, {"measurement": "MIC", "setting": "[5]", "value": 4, "unit": "mg/L"}, {"measurement": "MIC", "setting": "[6]", "value": 8, "unit": "mg/L"}, {"measurement": "C. albicans (MIC)", "setting": "C. albicans", "value": 5, "unit": "mg/L"}, {"measurement": "number of CFUs in skin biopsy vs controls", "setting": "[7]", "value": "more effective at reducing the number of CFUs than the placebo and fucidin or bactroban"}, {"measurement": "S. aureus (MIC)", "setting": "[8]", "value": 2, "unit": "mg/L"}, {"measurement": "S. pyogenes (MIC)", "setting": "S. pyogenes", "value": 2, "unit": "mg/L"}, {"measurement": "MIC", "setting": "[9]", "value": 4, "unit": "mg/L"}, {"measurement": "MIC", "setting": "[10]", "value": 4, "unit": "mg/L"}, {"measurement": "MIC", "setting": "[11]", "value": 2, "unit": "mg/L"}, {"measurement": "MIC", "setting": "[12]", "value": 4, "unit": "mg/L"}, {"measurement": "MIC", "setting": "[13]", "value": 4, "unit": "mg/L"}, {"measurement": "MIC", "setting": "[14]", "value": 8, "unit": "mg/L"}, {"measurement": "MIC", "setting": "[15]", "value": 4, "unit": "mg/L"}, {"measurement": "MIC", "setting": "[16]", "value": 4, "unit": "mg/L"}, {"measurement": "MIC", "setting": "[17]", "value": 8, "unit": "mg/L"}, {"measurement": "MIC", "setting": "[18]", "value": 4, "unit": "mg/L"}, {"measurement": "MIC", "setting": "[19]", "value": 8, "unit": "mg/L"}, {"measurement": "MIC", "setting": "[20]", "value": 8, "unit": "mg/L"}, {"measurement": "MRSE (MIC)", "setting": "[21]", "value": "<1", "unit": "mg/L"}, {"measurement": "P. aeruginosa (MIC)", "setting": "P. aeruginosa", "value": 5, "unit": "mg/L"}, {"measurement": "MIC", "setting": "[22]", "value": 4, "unit": "mg/L"}, {"measurement": "MIC", "setting": "[23]", "value": 8, "unit": "mg/L"}, {"measurement": "MIC", "setting": "[24]", "value": 8, "unit": "mg/L"}, {"measurement": "MIC", "setting": "[25]", "value": 4, "unit": "mg/L"}, {"measurement": "MIC", "setting": "[26]", "value": 2, "unit": "mg/L"}, {"measurement": "MIC", "setting": "[27]", "value": 4, "unit": "mg/L"}, {"measurement": "MIC", "setting": "[28]", "value": 4, "unit": "mg/L"}, {"measurement": "MIC", "setting": "[29]", "value": 4, "unit": "mg/L"}, {"measurement": "MIC", "setting": "[30]", "value": 4, "unit": "mg/L"}]}]}
